Assay results taken from patent US11708344B2, “Flavone derivatives for the treatment and prophylaxis of hepatitis B virus disease” (Hoffmann-La Roche Inc., priority 2018, dated 2023).

Legend:
[1] = Human microsome stability assay; type: in vitro ADME; conditions: human liver microsomes, 1 μM test compound, 0.5 mg/mL microsomal protein, 37° C., pH 7.4, 0-30 minutes
Summary of the method: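 Compound (1 μM) incubated at 37 °C with human liver microsomes (0.5 mg/mL protein) in 100 mM potassium phosphate, pH 7.4, after 10 min preincubation; started with NADPH regenerating system. Sampled at 0–30 min, quenched with cold ACN; remaining parent quantified by LC-MS/MS, with no-NADPH controls.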

[2] = tested on: HBsAg in HBV-infected PHH; test: Cryopreserved primary human hepatocytes (PHH) HBV infection assay, extracellular HBsAg (CLIA); type: cell-based; conditions: Hepatitis B virus, Hepatocyte, 216 h, read-out: HBsAg IC50, Cryopreserved PHH infected with HBV, 9 days post-compound treatment, extracellular HBsAg
Procedure: This assay is used to confirm the anti-HBV effect of the compounds in HBV PHH infection assay. Cryopreserved PHH (BioreclamationIVT, Lot YJM) was thawed at 37° C. and gently transferred into pre-warmed InVitroGRO HT medium (BioreclamationIVT, Cat. S03317). The mixture was centrifuged at 70 relative centrifugal force (RCF) for 3 minutes at RT, and the supernatant was discarded. Pre-warmed InVitroGRO CP medium (BioreclamationIVT, Cat #S03316) was added to the cell pellet to gently re-suspend cells. The cells were seeded at the density of 5.8×10^4 cells per well to collagen I coated 96-well plate (Gibco, Cat. A1142803) with the InVitroGRO CP medium. All plates were incubated at 37° C. with 5% CO2 and 85% humidity.
At 20 hours after plating, the medium was changed to PHH culture medium (Dulbecco's Modified Eagle Medium (DMEM)/F12 (1:1) (Gibco, Cat. 11320-033), 10% fetal bovine semm (Gibco Cat. 10099141), 100 U/mL penicillin, 100 μg/mL streptomycin (Gibco, Cat. 151401-122), […] (Invitrogen Cat. PHG0311L), 20 ng/mL dexamethasone (Sigma, Cat. D4902) and 250 ng/mL human recombinant insulin (Gibco, Cat. 12585-014)). And the cells were incubated at 37° C. with 5% CO2 and 85% humidity for 4 hours. The medium was then changed to pre-warmed PHH culture medium containing 4% polyethylene glycol (PEG) MW8000 (Sigma, Cat. P1458-50 ML) and 1% DMSO (Sigma, Cat. D2650). 5.8×10^6 genomic equivalents of HBV were added into the medium.
At 24 hours post-infection, the cells were gently washed with PBS and refreshed with PHH culture medium supplemented with 1% DMSO, and 0.25 mg/mL Matrix gel (Corning, Cat. 356237) at 200 μL per well. All plates were immediately placed in at 37° C. CO2 incubator.
24 hours later, serial dilutions of compounds made with DMSO were further diluted with the same culture medium (PHH culture medium supplemented with 1% DMSO and 0.25 mg/mL Matrix gel as described above) before they were added to the cells to reach desired final compound concentrations and 1% DMSO concentration. The medium containing the compounds were refreshed every three days.
At 9 days post-compound treatment, extracellular HBsAg level were measured with Chemiluminescence Immuno Assay (CLIA) kit (Autobio, HBsAg Quantitative CLIA). Extracellular HBV DNA was extracted by MagNA Pure 96 system (Roche) and then determined by quantitative PCR with the following primers and probe: […]
HBsAg IC50 and HBV DNA IC50 values were derived from the dose-response curve using 4 parameter logistic curve fit method. The compounds of formula (I) have HBsAg IC50<20 μM, particularly <1 μM; and HBV DNA IC50<50 μM.

[3] = tested on: HBeAg (surrogate marker for cccDNA) in HepDES19 cells; test: Engineered HepDES19 primary screen assay (HBeAg ELISA); type: cell-based, HBV; conditions: Hepatitis B virus, HepDES19, 120 h, read-out: IC50 (HBeAg level, HepDES19 primary screen assay), HepDES19 cells, 5 days compound incubation, HBeAg ELISA
Summary of the method: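 HepDES19 cells were induced by Tet withdrawal for 8 days, then treated with half-log compound dilutions (1% DMSO final) for 5 days at 37 °C. HBeAg was measured by ELISA as the cccDNA surrogate, viability by CCK-8, and IC50 from a 4-parameter logistic fit.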

Row | SMILES | Clearance of Human microsome [1] [mL/min/kg] | IC50 [2] [nM] | IC50 [3] [nM]
1 | Cc1ccc(-c2cc(=O)c3cccc(Cl)c3o2)c(O[C@H]2C[C@@H](C(=O)NS(C)(=O)=O)C2)c1 [Example B051-A, Cis-3-[2-(8-chloro-4-oxo-chromen-2-yl)-5-methyl-phenoxy]-N-methylsulfonyl-cyclobutanecarboxamide] | 6.15 | 3210 | 6180
2 | O=c1cc(-c2ccccc2OCCO[C@H]2C[C@@H](C(=O)O)C2)oc2c(Cl)cccc12 [Example C025-A, Cis-3-[2-[2-(8-chloro-4-oxo-chromen-2-yl)phenoxy]ethoxy]cyclobutanecarboxylic acid] | 6.15 | 2580 | 191
3 | O=C(O)C1CC(OCCCOc2cc(C(F)(F)F)ccc2-c2cc(=O)c3cccc(Cl)c3o2)C1 (stereo not drawn) [Example C103, 3-[3-[2-(8-chloro-4-oxo-chromen-2-yl)-5-(trifluoromethyl)phenoxy]propoxy]cyclobutanecarboxylic acid] | 6.15 | 7560 | 2280
4 | Cc1cc(-c2cc(=O)c3cccc(Cl)c3o2)c(OCCC(=O)O)cc1OC(F)(F)F [Example A017, 3-[2-(8-chloro-4-oxo-chromen-2-yl)-4-methyl-5-(trifluoromethoxy)phenoxy]propanoic acid] | 9.98 | 1840 | 3170
5 | COc1cc(OCCO[C@H]2C[C@@H](C(=O)NS(=O)(=O)C3CC3)C2)c(-c2cc(=O)c3cccc(Cl)c3o2)cc1OC [Example C119, Cis-3-[2-[2-(8-chloro-4-oxo-chromen-2-yl)-4,5-dimethoxy-phenoxy]ethoxy]-N-cyclopropylsulfonyl-cyclobutanecarboxamide] | 6.39 | 7210 | 3480
6 | COc1cc(-c2cc(=O)c3cccc(Cl)c3o2)c(OCCC(=O)O)cc1Br [Example A007, 3-[5-bromo-2-(8-chloro-4-oxo-chromen-2-yl)-4-methoxy-phenoxy]propanoic acid] | 6.15 | 2730 | 3150
7 | CCCOc1cc(OCCO[C@H]2C[C@@H](C(=O)O)C2)c(-c2cc(=O)c3cccc(Cl)c3o2)cc1OC [Example C077, Cis-3-[2-[2-(8-chloro-4-oxo-chromen-2-yl)-4-methoxy-5-propoxy-phenoxy]ethoxy]cyclobutanecarboxylic acid] | 6.15 | 9370 | 3210
8 | O=C(O)C1CC(Oc2cc(OC(F)(F)F)c(Br)cc2-c2cc(=O)c3cccc(Cl)c3o2)C1 (stereo not drawn) [Example B007, 3-[4-bromo-2-(8-chloro-4-oxo-chromen-2-yl)-5-(trifluoromethoxy)phenoxy]cyclobutanecarboxylic acid] | 6.15 | 2240 | 2310
9 | COc1cc(OCCC(=O)O)c(-c2cc(=O)c3cccc(Cl)c3o2)cc1OC [Example A010, 3-[2-(8-chloro-4-oxo-chromen-2-yl)-4,5-dimethoxy-phenoxy]propanoic acid] | 6.15 | 3000 | 1400
10 | Cc1cc(-c2cc(=O)c3cccc(Cl)c3o2)c(OCCCC(=O)O)cc1Cl [Example A057, 4-[5-chloro-2-(8-chloro-4-oxo-chromen-2-yl)-4-methyl-phenoxy]butanoic acid] | 6.15 | 9760 | 1330
11 | O=C(O)CCOc1cc(OC(F)(F)F)ccc1-c1cc(=O)c2cccc(Cl)c2o1 [Example A009, 3-[2-(8-chloro-4-oxo-chromen-2-yl)-5-(trifluoromethoxy)phenoxy]propanoic acid] | 6.57 | 1480 | 403
12 | O=C1CCCN1c1ccc(-c2cc(=O)c3cccc(Cl)c3o2)c(OCCO[C@H]2C[C@@H](C(=O)O)C2)c1 [Example C063-A, Cis-3-[2-[2-(8-chloro-4-oxo-chromen-2-yl)-5-(2-oxopyrrolidin-1-yl)phenoxy]ethoxy]cyclobutanecarboxylic acid] | 9.09 | 6610 | 4950
13 | COc1cc(-c2cc(=O)c3cccc(Cl)c3o2)c(OC2CC(C(=O)O)C2)cc1Br (stereo not drawn) [Example B004, 3-[5-bromo-2-(8-chloro-4-oxo-chromen-2-yl)-4-methoxy-phenoxy]cyclobutanecarboxylic acid] | 6.15 | 5520 | 556
14 | Cc1ccc(-c2cc(=O)c3cccc(Cl)c3o2)c(OCC(=O)O)c1 [Example A049, 2-[2-(8-chloro-4-oxo-chromen-2-yl)-5-methyl-phenoxy]acetic acid] | 6.15 | 1260 | 87.2
15 | CCNS(=O)(=O)N[C@@H](COc1cc(C(F)(F)F)ccc1-c1cc(=O)c2cccc(Cl)c2o1)C(=O)O [Example A099, (2S)-3-[2-(8-chloro-4-oxo-chromen-2-yl)-5-(trifluoromethyl)phenoxy]-2-(ethylsulfamoylamino)propanoic acid] | 9.53 | 140 | 66.3
16 | COc1cc(-c2cc(=O)c3cccc(Cl)c3o2)c(OCCO[C@H]2C[C@@H](C(=O)O)C2)cc1OC(F)F [Example C081, Cis-3-[2-[2-(8-chloro-4-oxo-chromen-2-yl)-5-(difluoromethoxy)-4-methoxy-phenoxy]ethoxy]cyclobutanecarboxylic acid] | 6.15 | 8770 | 779
17 | O=c1cc(-c2ccc(F)cc2OCCO[C@H]2C[C@@H](C(=O)O)C2)oc2c(Cl)cccc12 [Example C034-A, Cis-3-[2-[2-(8-chloro-4-oxo-chromen-2-yl)-5-fluoro-phenoxy]ethoxy]cyclobutanecarboxylic acid] | 6.15 | 4690 | 526
18 | CS(=O)(=O)NC(=O)[C@H]1C[C@@H](OCCOc2cc(Br)ccc2-c2cc(=O)c3cccc(Cl)c3o2)C1 [Example C122, Cis-3-[2-[5-bromo-2-(8-chloro-4-oxo-chromen-2-yl)phenoxy]ethoxy]-N-methylsulfonyl-cyclobutanecarboxamide] | 7.32 | 4810 | 1050
19 | Cc1cc(-c2cc(=O)c3cccc(Cl)c3o2)c(OCCC(=O)O)cc1Cl [Example A005, 3-[5-chloro-2-(8-chloro-4-oxo-chromen-2-yl)-4-methyl-phenoxy]propanoic acid] | 6.66 | 553 | 1370
20 | O=c1cc(-c2cc(F)c(Br)cc2OCCO[C@H]2C[C@@H](C(=O)O)C2)oc2c(Cl)cccc12 [Example C044-A, Cis-3-[2-[5-bromo-2-(8-chloro-4-oxo-chromen-2-yl)-4-fluoro-phenoxy]ethoxy]cyclobutanecarboxylic acid] | 6.15 | 9580 | 2010
21 | CCOc1cc(OCCO[C@H]2C[C@@H](C(=O)O)C2)c(-c2cc(=O)c3cccc(Cl)c3o2)cc1OC [Example C078, Cis-3-[2-[2-(8-chloro-4-oxo-chromen-2-yl)-5-ethoxy-4-methoxy-phenoxy]ethoxy]cyclobutanecarboxylic acid] | 6.15 | 6320 | 15000
